Entries after “also recorded” stand apart in the source; their conditions may differ.
How the values were obtained:
fungal tyrosinase [1] = assay: Anti-tyrosinase inhibiting activity, L-tyrosine as substrate, dopachrome at 475 nm; assay type: biochemical
Procedure: Morus alba plants were cultivated aeroponically for 8 weeks with a 15/10/30 (N/P/K) culture medium and with an electroconductivity in the range 1.0 and 1.2 mS/cm. The roots were chopped, dried, crushed and macerated in pure ethanol in a ratio of 1 mL of ethanol for 20 mg dry matter in accordance with the protocol described in Example 1. The sample was centrifuged at 21000 g for 10 minutes in order to separate the solid material. The anti-tyrosinase inhibiting activity of the supernatant was measured using L-tyrosine as the substrate. Tyrosinase catalyzes the conversion of L-tyrosine to dopaquinone, which is spontaneously converted into dopachrome. This latter absorbs strongly in the visible range of the electromagnetic spectrum (at 475 nm). The activity of the tyrosinase was measured by following the enzymatic conversion of the colorless L-tyrosine into orange dopachrome with the aid of a microplate reader.
The anti-tyrosinase activity of the supernatant was measured by mixing the following components: 150 μL of the solution of L-tyrosine (1.5 mM) in 50 mM sodium phosphate buffer, pH 6.8; 40 μL of supernatant diluted 2- to 800-fold in ethanol was tested as the inhibitor solution. The enzymatic conversion was initialized by adding a volume of 10 μL of fungal tyrosinase (0.2 mg/mL in a 50 mM sodium phosphate buffer, pH 6.8). The “control” experiment was carried out in the same manner, replacing the supernatant with pure ethanol.
Two root extracts of Morus alba were prepared in accordance with the protocol described in Example 1. The measurement of the anti-tyrosinase inhibiting activity was carried out in accordance with the protocol described in Example 2.1 with 40 μL of each of the two extracts diluted 100-fold or 200-fold in pure ethanol.
The measurement of the anti-tyrosinase inhibiting activity was carried out in accordance with the protocol described in Example 2.1.

[2] = tested on: collagenase obtained from Clostridium Histolyticum; assay: Target Binding affinity test for collagenase; conditions: ligands in non-stimulated M. alba root extract; moracenin B = reference ligand
Procedure: A root extract of Morus alba was prepared in accordance with the protocol described in Example 2.1. The Target Binding® method used was that of Example 2.3 which is described in patent application FR 1 670 545. The experimental protocol was as follows:
The target, a 6.25 mg/mL solution of collagenase obtained from Clostridium histolyticum, was prepared by dissolving lyophilized enzyme powder in 50 mM saline phosphate buffer with a pH of 7.5. The sample to be analyzed corresponded to the supernatant of the root extract obtained in accordance with Example 2.1. It could be centrifuged once again before use, at 21000 g for 15 min, in order to remove any traces of solid particles. A reference sample was also prepared by diluting the sample to be analyzed 10-fold in a solution of water and a quarter of the volume of acetonitrile.
1. Preconditioning step—Wells with a filtering membrane were preconditioned with a volume of 500 μL of a saline phosphate buffer which was passed through the membrane by centrifuging at 14000 g for 60 seconds.
2. Binding step—A volume of 92.5 μL of the solution obtained from the pretreatment step was mixed with 7.5 μL of the sample to be analyzed for 10 min in a plastic Eppendorf tube.
3. Washing step—The mixture of the enzyme and the sample to be analyzed was deposited in a well that had been preconditioned in the preconditioning step, then centrifuged at 14000 g until most of the solvent had been eliminated. The enzyme-ligand complexes remained on the surface of the filter membrane, then were re-suspended in a volume of 100 μL of the same saline phosphate buffer solution and centrifuged at 14000 g until the solvent had been eliminated. This procedure was repeated three times and eliminated all of the compounds that were not bound to the enzyme. 4. Separation step—The enzyme-ligand complexes retained in the filter were re-suspended in a volume of 10 μL of ultra-pure water then mixed with a volume of 30 μL of acetonitrile in order to denature and precipitate the enzyme and, at the same time, to liberate the ligands. The mixture was centrifuged at 21000 g for 10 min in order to separate the precipitate from the supernatant. 5. Analysis step—Said supernatant was analyzed by liquid phase chromatography coupled to a mass spectrometer. The reference sample was also analyzed in the same manner, using the same analytical conditions.
The UPLC-MS analysis was carried out in accordance with the protocol described in Example 1.

fungal tyrosinase [3] = assay: Target Binding affinity test for tyrosinase (UPLC-MS of bound ligands); conditions: for Relative affinity (RA) for tyrosinase: ligands in non-stimulated M. alba root extract, moracenin B = reference ligand
Description: It is based on the principle of bringing the ligands and the target into contact in the liquid phase so that the ligands that have the greatest affinity with the target bind to it, elimination of the ligands that are not fixed, separation of the complexes in order to recover the ligands which have been fixed, then quantification of the latter. In a first step of the method, the extract and the target are mixed. The compounds of the extract compete for access to the binding sites of the target. The strongest compounds displace the weakest and are retained more effectively by the target. […] A reference sample was also prepared by diluting the sample to be analyzed 10-fold in a solution of water and a quarter of the volume of acetonitrile. […] Pre-conditioning step-Wells with a filtering membrane were pre-conditioned with a volume of 500 μL of an 85% solution of ammonium acetate and 15% of ethanol which was passed through the membrane by centrifuging at 14000 g for 60 seconds. 2. […] 3. Washing step-The mixture of the enzyme and the sample to be analyzed was deposited in a well that had been pre-conditioned in the pre-conditioning step, then centrifuged at 14000 g until most of the solvent had been eliminated. […] This procedure was repeated three times and eliminated all of the compounds that were not bound to the enzyme. 4. Separation step-The enzyme-ligand complexes retained in the filter were re-suspended in a volume of 10 μL of ultra-pure water, then mixed with a volume of 40 μL of acetonitrile in order to denature and precipitate the enzyme and, at the same time, to liberate the ligands. The mixture was centrifuged at 21000 g for 10 min in order to separate the precipitate from the supernatant. 5. Analysis step-Said supernatant was analyzed by liquid phase chromatography coupled to a mass spectrometer, also known by the acronym UPLC-MS. The reference sample was also analyzed in the same manner, using the same analytical conditions. The UPLC-MS analysis was carried out in accordance with the protocol described in Example 1. The chromatograms obtained are presented in FIGS. 3A and 3B and represent a signal intensity as a function of retention time in a column. […] Each peak is associated with one of the ligands present in the analyzed extract. The quantity associated with each ligand corresponds to the area of the peak. […] For each ligand, an affinity ratio, RACEi, was calculated as follows: [formula] where: NF is a normalization factor; […] the intensity of the analytical signal for the ligand CEi in the reference sample; ISeq,REF is the intensity of the analytical signal for the reference ligand REF (here, moracenin B) in the reference sample; […] the intensity of the analytical signal for the ligand CEi in the treated solution (the sample to be analyzed after steps 2 to 4 for binding and separation of the ligands) for the detached ligands; ISTB,REF is the intensity of the analytical signal for the reference ligand REF (here, moracenin B) in the treated solution (the sample to be analyzed after steps 2 to 4 for binding and separation of the ligands) for the detached ligands; RA, CEi is the relative affinity ratio (RA), representing an affinity of the ligand CEi for the target. The value of the ratio increases with affinity.

SMILES | % inhibition of tyrosinase (fungal tyrosinase [1]; purified compound, 2.5 μM) | % inhibition of tyrosinase (fungal tyrosinase [1]; purified compound, 5 μM) | % inhibition of tyrosinase (fungal tyrosinase [1]; purified compound, 20 μM) | Relative affinity (RA) for collagenase [2] | Relative affinity (RA) for tyrosinase (fungal tyrosinase [3]) | rank of tyrosinase inhibiting activity among the 4 purified compounds (in words) (fungal tyrosinase [1]; 2.5, 5 and 20 μM) | inhibition of tyrosinase (fungal tyrosinase [1]; purified compound, 3.2 mg/L) | affinity for tyrosinase compared with the other compounds of the extract (in words) (fungal tyrosinase [3]; peak areas of FIG. 3B / relative affinities)
CC(C)=CCc1c(O)ccc(C(=O)[C@@H]2CC(C)=C[C@H](c3c(O)cc(O)c4c(=O)c(CC=C(C)C)c(-c5ccc(O)cc5O)oc34)[C@H]2c2ccc(O)cc2O)c1O [Moracenin A, moracenin A] | 18.9% | 27.7% | 59.0% | 1.1 | 5.1 |  |  | 
CC(C)=CCc1c(O)ccc(C(=O)C2C(c3ccc(O)cc3O)CC3(C)CC2c2c(O)cc(-c4cc5ccc(O)cc5o4)cc2O3)c1O (stereo not drawn) [Wittiorumin F, wittiorumin F] | 35.7% | 52.9% | 75.1% | 1.1 | 15.5 | best inhibiting activity | 52.9% | greater affinity; also recorded: higher affinity
CC(C)=CCc1c(-c2ccc(O)cc2O)oc2c([C@H]3C=C(C)C[C@H](C(=O)c4ccc(O)cc4O)[C@@H]3c3ccc(O)cc3O)c(O)cc(O)c2c1=O [Moracenin B, moracenin B] | 22.6% | 33.5% | 69.7% | 1.0 | 1.0 |  |  | 

Source: patent publication US11311593B2, “Root extracts from plants of the Morus genus and uses of same” (PLANT ADVANCED TECHNOLOGIES PAT, priority 2017, dated 2022)
